Test results: ChEMBL document CHEMBL5214927, “Recent advance on carbamate-based cholinesterase inhibitors as potential multifunctional agents against Alzheimer's disease” (Eur J Med Chem, 2022)
pIC50, pKi: −log10 of the molar value.

How the values were obtained:
[1] = biological target: T1, Acetylcholinesterase (Electrophorus electricus, UniProt O42275); assay: Inhibition of electric eel AChE
[2] = biological target: T2, Cholinesterase (Equus caballus, UniProt P81908); assay: Inhibition of equine BChE
T2 sequence (P81908 whole entry): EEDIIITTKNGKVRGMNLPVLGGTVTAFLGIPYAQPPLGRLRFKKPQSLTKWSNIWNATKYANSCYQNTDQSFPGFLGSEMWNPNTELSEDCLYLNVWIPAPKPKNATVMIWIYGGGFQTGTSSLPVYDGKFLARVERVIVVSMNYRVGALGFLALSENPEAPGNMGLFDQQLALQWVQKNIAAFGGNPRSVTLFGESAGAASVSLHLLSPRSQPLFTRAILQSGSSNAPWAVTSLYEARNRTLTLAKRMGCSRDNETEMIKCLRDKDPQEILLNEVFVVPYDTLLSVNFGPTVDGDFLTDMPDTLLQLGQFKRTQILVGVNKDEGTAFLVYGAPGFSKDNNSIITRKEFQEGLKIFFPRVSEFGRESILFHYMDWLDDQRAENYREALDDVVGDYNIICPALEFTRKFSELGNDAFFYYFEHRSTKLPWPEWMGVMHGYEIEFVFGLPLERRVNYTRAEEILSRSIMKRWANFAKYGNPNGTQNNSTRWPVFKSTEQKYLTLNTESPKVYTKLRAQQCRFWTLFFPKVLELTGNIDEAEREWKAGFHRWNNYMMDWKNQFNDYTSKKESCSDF

[3] = biological target: T3, Cholinesterase (Homo sapiens, UniProt P06276); assay: Inhibition of BChE (unknown origin)
T3 sequence (P06276 whole entry): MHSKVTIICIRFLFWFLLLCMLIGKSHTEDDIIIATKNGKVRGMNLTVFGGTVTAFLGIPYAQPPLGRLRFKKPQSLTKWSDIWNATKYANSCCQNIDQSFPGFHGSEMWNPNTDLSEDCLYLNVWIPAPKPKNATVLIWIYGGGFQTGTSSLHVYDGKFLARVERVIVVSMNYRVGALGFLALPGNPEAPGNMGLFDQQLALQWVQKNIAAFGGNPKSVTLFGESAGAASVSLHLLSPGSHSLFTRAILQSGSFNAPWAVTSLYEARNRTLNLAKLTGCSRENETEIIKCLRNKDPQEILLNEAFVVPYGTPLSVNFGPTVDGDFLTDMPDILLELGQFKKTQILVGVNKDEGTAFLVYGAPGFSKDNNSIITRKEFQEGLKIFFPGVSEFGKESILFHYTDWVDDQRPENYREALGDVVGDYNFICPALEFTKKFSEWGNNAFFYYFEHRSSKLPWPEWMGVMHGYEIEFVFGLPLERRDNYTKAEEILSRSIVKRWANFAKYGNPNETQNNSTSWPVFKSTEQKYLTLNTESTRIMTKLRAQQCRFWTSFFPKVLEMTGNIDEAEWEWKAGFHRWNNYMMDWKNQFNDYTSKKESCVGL

[4] = Selectivity index, ratio of IC50 for electric eel AChE to IC50 for equine BChE
[5] = biological target: T4, Acetylcholinesterase (Homo sapiens, UniProt P22303); assay: Inhibition of recombinant human AChE
T4 sequence (P22303 whole entry): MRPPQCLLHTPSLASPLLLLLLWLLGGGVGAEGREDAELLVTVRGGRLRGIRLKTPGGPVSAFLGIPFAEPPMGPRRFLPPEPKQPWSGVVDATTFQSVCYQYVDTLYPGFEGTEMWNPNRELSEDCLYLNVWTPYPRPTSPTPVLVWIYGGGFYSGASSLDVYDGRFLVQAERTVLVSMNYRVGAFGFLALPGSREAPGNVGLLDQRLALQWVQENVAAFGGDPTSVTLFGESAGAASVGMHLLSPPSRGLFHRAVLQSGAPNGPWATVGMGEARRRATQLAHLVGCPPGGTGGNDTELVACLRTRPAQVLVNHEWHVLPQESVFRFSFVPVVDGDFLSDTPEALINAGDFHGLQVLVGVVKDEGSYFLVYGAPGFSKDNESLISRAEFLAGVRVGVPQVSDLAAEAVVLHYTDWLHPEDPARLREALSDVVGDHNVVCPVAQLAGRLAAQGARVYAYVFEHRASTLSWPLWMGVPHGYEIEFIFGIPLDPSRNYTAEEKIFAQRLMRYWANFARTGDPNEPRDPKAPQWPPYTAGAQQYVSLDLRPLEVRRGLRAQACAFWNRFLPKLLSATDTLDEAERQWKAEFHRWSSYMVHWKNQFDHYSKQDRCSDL

[6] = biological target: T4, Acetylcholinesterase; assay: Inhibition of human AChE
[7] = biological target: T3, Cholinesterase; assay: Inhibition of human BChE
[8] = biological target: T5, Cholinesterases; ACHE & BCHE (Homo sapiens) (UniProt P06276+P22303); assay: Selectivity index, ratio of IC50 for human AChE to IC50 for human BChE; assay type: protein assay
T5 sequence (P06276 whole entry, looked up): as the sequence (P06276 whole entry) above
T5 sequence (P22303 whole entry, looked up): as the sequence (P22303 whole entry) above

[9] = biological target: T1, Acetylcholinesterase; assay: Inhibition of electric eel AChE using acetylthiocholine iodide as substrate incubated for 30 mins by Ellman's method
[10] = biological target: T1, Acetylcholinesterase; assay: Binding affinity to electric eel AChE assessed as inhibition constant using acetylthiocholine iodide as substrate incubated for 30 mins by Ellman's method
[11] = biological target: T6, Acetylcholinesterase (Rattus norvegicus, UniProt P37136); assay: Inhibition of Sprague-Dawley rat cortex AChE using acetylthiocholine iodide as substrate incubated for 15 mins in presence of iso-OMPA inhibitor by Ellman's method
T6 sequence (P37136 whole entry): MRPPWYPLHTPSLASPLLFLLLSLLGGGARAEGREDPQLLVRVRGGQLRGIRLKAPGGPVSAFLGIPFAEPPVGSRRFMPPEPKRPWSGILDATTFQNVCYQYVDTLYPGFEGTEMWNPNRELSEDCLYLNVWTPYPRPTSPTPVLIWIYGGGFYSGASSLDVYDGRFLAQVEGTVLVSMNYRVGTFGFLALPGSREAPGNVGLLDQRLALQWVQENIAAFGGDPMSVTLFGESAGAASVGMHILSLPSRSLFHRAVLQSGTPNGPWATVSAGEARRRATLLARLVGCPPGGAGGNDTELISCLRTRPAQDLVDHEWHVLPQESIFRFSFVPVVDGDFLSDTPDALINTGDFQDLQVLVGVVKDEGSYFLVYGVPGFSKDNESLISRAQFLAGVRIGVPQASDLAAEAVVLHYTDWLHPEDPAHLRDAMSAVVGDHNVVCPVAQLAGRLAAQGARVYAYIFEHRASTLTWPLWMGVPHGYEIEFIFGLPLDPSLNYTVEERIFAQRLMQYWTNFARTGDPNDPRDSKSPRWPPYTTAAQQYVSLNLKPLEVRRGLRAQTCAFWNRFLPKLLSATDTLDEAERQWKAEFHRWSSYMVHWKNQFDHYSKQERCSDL

[12] = biological target: T5, Cholinesterases; ACHE & BCHE (Homo sapiens); assay: Selectivity index, ratio of IC50 for recombinant human serum BChE to IC50 for recombinant human serum AChE; assay type: protein assay
[13] = biological target: T4, Acetylcholinesterase; assay: Inhibition of recombinant human serum AChE using acetylthiocholine iodide as substrate preincubated for 20 mins followed by substrate addition by Ellman's method
[14] = biological target: T3, Cholinesterase; assay: Inhibition of recombinant human serum BChE using acetylthiocholine iodide as substrate preincubated for 20 mins followed by substrate addition by Ellman's method
[15] = biological target: T5, Cholinesterases; ACHE & BCHE (Homo sapiens); assay: Selectivity index, ratio of IC50 for AChE (unknown origin) to BChE (unknown origin); assay type: protein assay
[16] = biological target: T2, Cholinesterase; assay: Inhibition of equine BChE using acetylthiocholine iodide as substrate preincubated for 10 mins followed by substrate addition by Ellman's method
[17] = biological target: T7, Amine oxidase [flavin-containing] A (Homo sapiens, UniProt P21397); assay: Inhibition of MAO-A (unknown origin)
T7 sequence (P21397 whole entry): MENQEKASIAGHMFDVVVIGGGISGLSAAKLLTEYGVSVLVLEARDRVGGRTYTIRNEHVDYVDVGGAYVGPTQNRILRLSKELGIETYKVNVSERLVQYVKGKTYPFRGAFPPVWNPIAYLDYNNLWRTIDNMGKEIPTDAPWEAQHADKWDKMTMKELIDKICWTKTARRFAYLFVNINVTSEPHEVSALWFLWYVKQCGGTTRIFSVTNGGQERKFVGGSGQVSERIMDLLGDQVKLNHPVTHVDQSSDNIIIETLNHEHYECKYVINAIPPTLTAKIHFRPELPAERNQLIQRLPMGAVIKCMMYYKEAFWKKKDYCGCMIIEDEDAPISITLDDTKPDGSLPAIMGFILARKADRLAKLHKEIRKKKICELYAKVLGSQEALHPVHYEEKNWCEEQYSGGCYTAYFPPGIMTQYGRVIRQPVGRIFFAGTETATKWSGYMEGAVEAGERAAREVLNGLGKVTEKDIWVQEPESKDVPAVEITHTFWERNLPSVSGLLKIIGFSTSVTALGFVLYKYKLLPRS

[18] = biological target: T8, Amine oxidase [flavin-containing] B (Homo sapiens, UniProt P27338); assay: Inhibition of MAO-B (unknown origin)
T8 sequence (P27338 whole entry): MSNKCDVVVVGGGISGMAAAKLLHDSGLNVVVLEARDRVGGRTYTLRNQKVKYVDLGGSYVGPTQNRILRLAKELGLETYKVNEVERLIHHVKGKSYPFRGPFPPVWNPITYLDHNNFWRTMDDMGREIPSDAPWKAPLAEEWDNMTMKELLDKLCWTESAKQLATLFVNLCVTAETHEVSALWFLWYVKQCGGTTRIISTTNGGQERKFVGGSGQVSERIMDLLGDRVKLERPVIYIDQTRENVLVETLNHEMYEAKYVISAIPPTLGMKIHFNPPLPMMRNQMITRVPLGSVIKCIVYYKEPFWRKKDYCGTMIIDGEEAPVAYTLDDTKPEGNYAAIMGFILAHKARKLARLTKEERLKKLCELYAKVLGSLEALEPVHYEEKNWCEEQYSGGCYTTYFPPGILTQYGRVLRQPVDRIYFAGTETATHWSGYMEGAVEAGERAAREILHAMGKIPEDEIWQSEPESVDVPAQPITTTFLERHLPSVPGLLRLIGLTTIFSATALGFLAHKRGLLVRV

T1 sequence (O42275 whole entry): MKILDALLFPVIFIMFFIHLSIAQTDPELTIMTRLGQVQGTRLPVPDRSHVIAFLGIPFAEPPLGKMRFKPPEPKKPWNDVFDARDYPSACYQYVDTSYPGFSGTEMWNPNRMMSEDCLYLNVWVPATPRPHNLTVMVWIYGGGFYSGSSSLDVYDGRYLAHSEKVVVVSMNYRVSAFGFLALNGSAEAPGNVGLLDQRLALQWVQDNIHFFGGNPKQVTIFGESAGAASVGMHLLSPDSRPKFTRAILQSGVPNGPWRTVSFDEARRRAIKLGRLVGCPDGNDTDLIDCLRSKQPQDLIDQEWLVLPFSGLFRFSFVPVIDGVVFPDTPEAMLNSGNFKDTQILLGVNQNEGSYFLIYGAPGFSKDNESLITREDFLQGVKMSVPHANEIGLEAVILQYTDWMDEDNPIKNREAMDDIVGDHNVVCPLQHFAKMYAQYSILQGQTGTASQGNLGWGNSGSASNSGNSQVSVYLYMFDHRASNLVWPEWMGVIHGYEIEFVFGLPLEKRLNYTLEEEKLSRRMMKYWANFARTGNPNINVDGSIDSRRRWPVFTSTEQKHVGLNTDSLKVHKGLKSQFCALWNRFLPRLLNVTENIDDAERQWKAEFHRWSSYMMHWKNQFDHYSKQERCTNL

Compound: O=C(Nc1cccc([N+](=O)[O-])c1)OCCNc1c2ccccc2nc2ccccc12
- pIC50 [1]: 7.65
- pIC50 [2]: 7.77

Compound: COc1cc(/C=C/C(=O)NCCCCNC(=O)Oc2ccc3c(c2)CN2CCc4ccccc4C2N3C)ccc1O (centres undefined)
- pIC50 [3]: 6.99

Compound: CN(C)C(=O)Oc1cccc(-c2coc3c4c(ccc3c2=O)OC(C)(C)C=C4)c1
- pIC50 [1]: 4.47
- pIC50 [2]: 6.17
- Ratio IC50 [4]: 49.3

Compound: O=C1CCOc2cc(OCCCCCSC(=S)N3CCCCC3)ccc21
- pIC50 [5]: 7.00

Compound: O=C(Oc1cc(O)c2c(=O)cc(-c3ccc(O)cc3)oc2c1)N1CCCCC1
- pIC50 [6]: 4.20
- pIC50 [7]: 7.03
- Ratio IC50 [8]: 665

Compound: COC(=O)CCC/C=C\C/C=C\C/C=C\CCOC(=O)Nc1ccc(Cl)cc1
- pIC50 [9]: 4.69
- pKi [10]: 5.58

Compound: O=c1ccc2ccc(OCCCCSC(=S)N3CCCCC3)cc2[nH]1
- pIC50 [2]: 6.80

Compound: CC(C)C[C@@H](CS(=O)(=O)NCc1ccc(Cl)cc1)NC(=O)OCc1ccccc1
- Ratio IC50 [4]: 10.3

Compound: CN1CCN(C(=O)Oc2ccc(/C=C/c3cc(OC(=O)N4CCN(C)CC4)cc(OC(=O)N4CCN(C)CC4)c3)cc2)CC1
- pIC50 [11]: 5.16

Compound: COC(=O)C1=CN([11CH3])c2cccc(OC(=O)N(C)C)c2C1
- pIC50 [6]: < 3.00

Compound: CCCCCCCNC(=O)Oc1ccc(F)c(-c2coc3c4c(ccc3c2=O)OC(C)(C)C=C4)c1
- pIC50 [1]: 4.11
- pIC50 [2]: 7.03
- Ratio IC50 [4]: 836

Compound: CNC(=O)Oc1cccc(CN(C)CCCCCCCOc2ccc(-c3cc(=O)c4ccccc4o3)cc2)c1
- Ratio IC50 [12]: 96
- pIC50 [13]: 9.14
- pIC50 [14]: 7.15

Compound: Cc1ccccc1NC(=O)Oc1ccc2c(c1)[C@]1(C)CCO[C@@H]1O2
- pIC50 [3]: < 4.52

Compound: COC(=O)c1cc2c(OC(=O)N(C)C)cccc2[n+]([11CH3])c1
- pIC50 [6]: 7.70

Compound: CC(C)c1ccc(NC(=O)Oc2ccc3c(c2)C2(C)COC(C2)O3)cc1 (centres undefined)
- Ratio IC50 [15]: 195

Compound: COc1ccccc1-c1ccc(=O)n(COC(=O)Nc2ccc(C)cc2)n1
- pIC50 [16]: 4.46

Compound: C#CCN(C)C1CCc2c(OC(=O)N(C)CC)cccc21 (centres undefined)
- pIC50 [7]: 4.83
- pIC50 [17]: 6.10
- pIC50 [18]: 7.57
- pIC50 [5]: 5.40

Compound: C#CCN(C)C1CCc2cccc(OC(=O)N(C)C)c21 (centres undefined)
- pIC50 [17]: 5.15
- pIC50 [18]: 6.48
- pIC50 [5]: 3.14

Compound: COc1cc(/C=C/c2ccc(OC(=O)N3CCN(C)CC3)cc2)cc(OC)c1
- pIC50 [11]: 5.07

Compound: C#CCNC1CCc2c(OC(=O)N(C)CC)cccc21 (centres undefined)
- pIC50 [7]: 5.67
- pIC50 [17]: 7.72
- pIC50 [18]: 6.08
- pIC50 [5]: 3.82

Compound: COC(=O)CCC/C=C\C/C=C\C/C=C\CCOC(=O)Nc1ccc(Br)cc1
- pIC50 [9]: 4.72
- pKi [10]: 5.96

Compound: COC(=O)CCC/C=C\C/C=C\C/C=C\CCOC(=O)Nc1cccc(Cl)c1
- pIC50 [9]: 4.77
- pKi [10]: 6.03

Compound: CNC(=O)Oc1cccc(CN(C)CCCCCCCOc2cccc(-c3cc(=O)c4ccccc4o3)c2)c1
- Ratio IC50 [12]: 122

Compound: CC(C)c1ccc(NC(=O)Oc2ccc3c(c2)[C@]2(C)CCO[C@@H]2O3)cc1
- pIC50 [3]: 7.57
